This is an account of results in patent US20260355323A1, “CEREBLON-RECRUITING BCL-XL/BCL-2 DUAL DEGRADERS” (University of Florida Research Foundation, Incorporated, priority 2022, published 2026).

Some results are limits rather than exact numbers.

Assay [1] relates to WI-38 irradiation-induced senescent cells (IR-SC). Description: Senolytic activity, cell viability (PrestoBlue HS), WI-38 IR-SC. The format is cell-based. The following applies: Homo sapiens, 72 h. As for the experimental part: To induce senescence in WI-38 and HUVEC, cells were subjected to x-ray irradiation at 20 Gray using X-RAD 320 biological irradiator. Following between 10 to 15 days after irradiation, senescence was induced in cells, and irradiation-induced senescent cells (IR-SC) were then used for cell viability and Western blotting tests.
(§1) WI-38 and HUVEC cells were incubated with increasing concentrations of degraders for 72 h. Cell viability was measured using PrestoBlue HS cell viability reagent.

The subject of assay [2] is RS4;11 acute lymphoblastic leukemia cells. The experiment in a line: Cell viability, tetrazolium-based MTS assay, RS4;11. The following applies: Homo sapiens, RS4;11, 48 h, read-out: Anti-Cancer Activity EC50 (48 hr), RS4. As for the experimental part:
(§2) Acute lymphoblastic leukemia cells (MOLT-4 and RS4;11) were incubated with increasing concentrations of Bcl-xL/Bcl-2 degraders for 48 h. Cell viability was measured by tetrazolium-based MTS assay.

Assay [3] deals with WI-38 NC. The experiment in a line: Senolytic activity, cell viability (PrestoBlue HS), WI-38 NC. The following applies: for EC50: Homo sapiens, 72 h. It is filed as cell-based. How it is done: as §1
The test system of assay [4] is MOLT-4 acute lymphoblastic leukemia cells. Description: Cell viability, tetrazolium-based MTS assay, MOLT-4. The note with it: Homo sapiens, MOLT-4, 48 h; read-out: Anti-Cancer Activity EC50 (48 hr), MOLT-4. How it is done: as §2

A word on the EC50: it is the midpoint of the concentration-response curve. Take `C[C@@]1(CN2CCN(C(=O)CCCN3CCN(c4ccc5c(c4)CN(C4CCC(=O)NC4=O)C5=O)CC3)CC2)CCC(c2ccc(Cl)cc2)=C(CN2CCN(c3ccc(C(=O)NS(=O)(=O)c4ccc(N[C@H](CCN5CCCOCC5)CSc5ccccc5)c(S(=O)(=O)C(F)(F)F)c4)cc3)CC2)C1` (stereo partly drawn) [Compound 2, N-((4-(((R)-4-(1,4-oxazepan-4-yl)-1-(phenylthio)butan-2-yl)amino)-3-((trifluoromethyl)sulfonyl)phenyl)sulfonyl)-4-(4-(((4R)-4′-chloro-4-((4-(4-(4-(2-(2,6-dioxopiperidin-3-yl)-1-oxoisoindolin-5-yl)piperazin-1-yl)butanoyl)piperazin-1-yl)methyl)-4-methyl-3,4,5,6-tetrahydro-[1,1′-biphenyl]-2-yl)methyl)piperazin-1-yl)benzamide]: the EC50 is 1 to 10 nM in assay [1], less than 1 nM in assay [2], more than 10000 nM in assay [3] and less than 1 nM in assay [4].
As for `C[C@@]1(CN2CCN(C(=O)CN3CCC(C#Cc4ccc5c(c4)CN(C4CCC(=O)NC4=O)C5=O)CC3)CC2)CCC(c2ccc(Cl)cc2)=C(CN2CCN(c3ccc(C(=O)NS(=O)(=O)c4ccc(N[C@H](CCN5CCCOCC5)CSc5ccccc5)c(S(=O)(=O)C(F)(F)F)c4)cc3)CC2)C1` (stereo partly drawn) [Compound 5, N-((4-(((R)-4-(1,4-oxazepan-4-yl)-1-(phenylthio)butan-2-yl)amino)-3-((trifluoromethyl)sulfonyl)phenyl)sulfonyl)-4-(4-(((4R)-4′-chloro-4-((4-(2-(4-((2-(2,6-dioxopiperidin-3-yl)-1-oxoisoindolin-5-yl)ethynyl)piperidin-1-yl)acetyl)piperazin-1-yl)methyl)-4-methyl-3,4,5,6-tetrahydro-[1,1′-biphenyl]-2-yl)methyl)piperazin-1-yl)benzamide], the concentration giving a half-maximal response (EC50) in assay [1] is 10 to 100 nM; in assay [2] it was less than 1 nM; in assay [3], more than 10000 nM; in assay [4] it was less than 1 nM.
`C[C@@]1(CN2CCC(CCc3ccc4c(c3)CN(C3CCC(=O)NC3=O)C4=O)CC2)CCC(c2ccc(Cl)cc2)=C(CN2CCN(c3ccc(C(=O)NS(=O)(=O)c4ccc(N[C@H](CCN5CCCOCC5)CSc5ccccc5)c(S(=O)(=O)C(F)(F)F)c4)cc3)CC2)C1` (stereo partly drawn) [Compound 46, N-((4-(((R)-4-(1,4-oxazepan-4-yl)-1-(phenylthio)butan-2-yl)amino)-3-((trifluoromethyl)sulfonyl)phenyl)sulfonyl)-4-(4-(((4R)-4′-chloro-4-((4-(2-(2-(2,6-dioxopiperidin-3-yl)-1-oxoisoindolin-5-yl)ethyl)piperidin-1-yl)methyl)-4-methyl-3,4,5,6-tetrahydro-[1,1′-biphenyl]-2-yl)methyl)piperazin-1-yl)benzamide]: the results for the EC50 in assay [2], in assay [3] and in assay [4] were less than 1 nM, more than 10000 nM and less than 1 nM, respectively.
Turning to `CC1CN(c2ccc3c(c2)CN(C2CCC(=O)NC2=O)C3=O)CC(C)N1CC1CCN(C[C@]2(C)CCC(c3ccc(Cl)cc3)=C(CN3CCN(c4ccc(C(=O)NS(=O)(=O)c5ccc(N[C@H](CCN6CCCOCC6)CSc6ccccc6)c(S(=O)(=O)C(F)(F)F)c5)cc4)CC3)C2)CC1` (stereo partly drawn) [Compound 50, N-((4-(((R)-4-(1,4-oxazepan-4-yl)-1-(phenylthio)butan-2-yl)amino)-3-((trifluoromethyl)sulfonyl)phenyl)sulfonyl)-4-(4-(((4R)-4′-chloro-4-((4-((4-(2-(2,6-dioxopiperidin-3-yl)-1-oxoisoindolin-5-yl)-2,6-dimethylpiperazin-1-yl)methyl)piperidin-1-yl)methyl)-4-methyl-3,4,5,6-tetrahydro-[1,1′-biphenyl]-2-yl)methyl)piperazin-1-8 yl)benzamide], the EC50 in assay [2] and in assay [4] was less than 1 nM in each case. Besides, the “Senolytic Activity EC50 (72 hr), WI-38 NC” value in assay [3] is given as “++ (100-10 μM)”.
On to `C[C@@]1(CN2CCC(CCN3CCN(c4ccc5c(c4)CN(C4CCC(=O)NC4=O)C5=O)CC3)CC2)CCC(c2ccc(Cl)cc2)=C(CN2CCN(c3ccc(C(=O)NS(=O)(=O)c4ccc(N[C@H](CCN5CCCOCC5)CSc5ccccc5)c(S(=O)(=O)C(F)(F)F)c4)cc3)CC2)C1` (stereo partly drawn) [Compound 65, N-((4-(((R)-4-(1,4-oxazepan-4-yl)-1-(phenylthio)butan-2-yl)amino)-3-((trifluoromethyl)sulfonyl)phenyl)sulfonyl)-4-(4-(((4R)-4′-chloro-4-((4-(2-(4-(2-(2,6-dioxopiperidin-3-yl)-1-oxoisoindolin-5-yl)piperazin-1-yl)ethyl)piperidin-1-yl)methyl)-4-methyl-3,4,5,6-tetrahydro-[1,1′-biphenyl]-2-yl)methyl)piperazin-1-yl)benzamide], for which the values for the EC50 in assay [2], in assay [3] and in assay [4] were less than 1 nM, more than 10000 nM and less than 1 nM, respectively.
For the compound `C[C@@]1(CN2CCN(c3ccc4c(c3)CN(C3CCC(=O)NC3=O)C4=O)CC2)CCC(c2ccc(Cl)cc2)=C(CN2CCN(c3ccc(C(=O)NS(=O)(=O)c4ccc(N[C@H](CCN5CCCOCC5)CSc5ccccc5)c(S(=O)(=O)C(F)(F)F)c4)cc3)CC2)C1` (stereo partly drawn) [Compound 127, N-((4-(((R)-4-(1,4-oxazepan-4-yl)-1-(phenylthio)butan-2-yl)amino)-3-((trifluoromethyl)sulfonyl)phenyl)sulfonyl)-4-(4-(((4R)-4′-chloro-4-((4-(2-(2,6-dioxopiperidin-3-yl)-1-oxoisoindolin-5-yl)piperazin-1-yl)methyl)-4-methyl-3,4,5,6-tetrahydro-[1,1′-biphenyl]-2-yl)methyl)piperazin-1-yl)benzamide], the concentration giving a half-maximal response (EC50) in assay [2] is less than 1 nM; in assay [3], more than 10000 nM; in assay [4], less than 1 nM.
`CC1CN(c2ccc3c(c2)CN(C2CCC(=O)NC2=O)C3=O)CC(C)N1CC1CN(C[C@]2(C)CCC(c3ccc(Cl)cc3)=C(CN3CCN(c4ccc(C(=O)NS(=O)(=O)c5ccc(N[C@H](CCN6CCCOCC6)CSc6ccccc6)c(S(=O)(=O)C(F)(F)F)c5)cc4)CC3)C2)C1` (stereo partly drawn) [Compound 129, N-((4-(((R)-4-(1,4-oxazepan-4-yl)-1-(phenylthio)butan-2-yl)amino)-3-((trifluoromethyl)sulfonyl)phenyl)sulfonyl)-4-(4-(((4R)-4′-chloro-4-((3-((4-(2-(2,6-dioxopiperidin-3-yl)-1-oxoisoindolin-5-yl)-2,6-dimethylpiperazin-1-yl)methyl)azetidin-1-yl)methyl)-4-methyl-3,4,5,6-tetrahydro-[1,1′-biphenyl]-2-yl)methyl)piperazin-1-yl)benzamide]: the EC50 in assay [2] was less than 1 nM; in assay [3] it was more than 10000 nM; in assay [4], less than 1 nM.
In the case of `C[C@@]1(CN2CCC(CN3CC4CC3CN4c3ccc4c(c3)CN(C3CCC(=O)NC3=O)C4=O)CC2)CCC(c2ccc(Cl)cc2)=C(CN2CCN(c3ccc(C(=O)NS(=O)(=O)c4ccc(N[C@H](CCN5CCCOCC5)CSc5ccccc5)c(S(=O)(=O)C(F)(F)F)c4)cc3)CC2)C1` (stereo partly drawn) [Compound 130, N-((4-(((R)-4-(1,4-oxazepan-4-yl)-1-(phenylthio)butan-2-yl)amino)-3-((trifluoromethyl)sulfonyl)phenyl)sulfonyl)-4-(4-(((4R)-4′-chloro-4-((4-((5-(2-(2,6-dioxopiperidin-3-yl)-1-oxoisoindolin-5-yl)-2,5-diazabicyclo[2.2.1]heptan-2-yl)methyl)piperidin-1-yl)methyl)-4-methyl-3,4,5,6-tetrahydro-[1,1′-biphenyl]-2-yl)methyl)piperazin-1-yl)benzamide], the figures for the EC50 in assay [2], in assay [3] and in assay [4] were 1 to 10 nM, more than 10000 nM and 1 to 10 nM, respectively.
With `C[C@@]1(CN2CC(CN3CC4CC3CN4c3ccc4c(c3)CN(C3CCC(=O)NC3=O)C4=O)C2)CCC(c2ccc(Cl)cc2)=C(CN2CCN(c3ccc(C(=O)NS(=O)(=O)c4ccc(N[C@H](CCN5CCCOCC5)CSc5ccccc5)c(S(=O)(=O)C(F)(F)F)c4)cc3)CC2)C1` (stereo partly drawn) [Compound 131, N-((4-(((R)-4-(1,4-oxazepan-4-yl)-1-(phenylthio)butan-2-yl)amino)-3-((trifluoromethyl)sulfonyl)phenyl)sulfonyl)-4-(4-(((4R)-4′-chloro-4-((3-((5-(2-(2,6-dioxopiperidin-3-yl)-1-oxoisoindolin-5-yl)-2,5-diazabicyclo[2.2.1]heptan-2-yl)methyl)azetidin-1-yl)methyl)-4-methyl-3,4,5,6-tetrahydro-[1,1′-biphenyl]-2-yl)methyl)piperazin-1-yl)benzamide], the figures for the EC50 in assay [2], in assay [3] and in assay [4] were 1 to 10 nM, more than 10000 nM and 1 to 10 nM, respectively.
Turning to `C[C@@]1(CN2CCC(C#Cc3ccc4c(c3)CN(C3CCC(=O)NC3=O)C4=O)CC2)CCC(c2ccc(Cl)cc2)=C(CN2CCN(c3ccc(C(=O)NS(=O)(=O)c4ccc(N[C@H](CCN5CCCOCC5)CSc5ccccc5)c(S(=O)(=O)C(F)(F)F)c4)cc3)CC2)C1` (stereo partly drawn) [Compound 132, N-((4-(((R)-4-(1,4-oxazepan-4-yl)-1-(phenylthio)butan-2-yl)amino)-3-((trifluoromethyl)sulfonyl)phenyl)sulfonyl)-4-(4-(((4R)-4′-chloro-4-((4-((2-(2,6-dioxopiperidin-3-yl)-1-oxoisoindolin-5-yl)ethynyl)piperidin-1-yl)methyl)-4-methyl-3,4,5,6-tetrahydro-[1,1′-biphenyl]-2-yl)methyl)piperazin-1-yl)benzamide], the EC50 was 1 to 10 nM in assay [2], more than 10000 nM in assay [3] and less than 1 nM in assay [4].
